Source: US7939662B2, “Amorphous ziprasidone hydrochloride (5-[2-[4-(1,2-benzisothiazol-3-yl)-1-piperazinyl]ethyl]-6-chloro-1,3-dihydro-2H-indol-2-one hydrochloride) and processes to produce the same” (Apotex Pharmachem Inc., priority 2004, dated 2011)

Experiments:
aqueous solubility = type: physicochemical; conditions: relative to those of the prior art; no test described
[1] = as stated in U.S. Pat. No. 5,312,925; cited from earlier work
[2] = crystalline monohydrate form; background statement; cited from earlier work

water solubility relative to the prior art forms (aqueous solubility) | SMILES | hygroscopic stability [1] | aqueous solubility [2]
better water solubility | Cl.O=C1Cc2cc(CCN3CCN(c4nsc5ccccc45)CC3)c(Cl)cc2N1 [amorphous ziprasidone hydrochloride, 5-[2-[4-(1,2-benzisothiazol-3-yl)-1-piperazinyl]ethyl]-6-chloro-1,3-dihydro-2H-indol-2-one hydrochloride] | – | –
– | Cl.O=C1Cc2cc(CCN3CCN(c4nsc5ccccc45)CC3)c(Cl)cc2N1 [ziprasidone hydrochloride monohydrate, 5-[2-[4-(1,2-benzisothiazol-3-yl)-1-piperazinyl]ethyl]-6-chloro-1,3-dihydro-2H-indol-2-one hydrochloride] | hygroscopically stable | very low
